≈ marks a conversion by molar mass, not a printed value. Read-outs that look alike come from different tables or passages of the source. Marks after values point to notes of the source that are not given here.
Key:
[1] = test system: P. falciparum Pf3D7_0087/N9 parasites; conditions: for AUCED90: total blood AUC at the ED90, Day 1 pharmacokinetic data, QD, only two dose levels
[2] = kinetic aqueous solubility by nephelometry; assay type: physicochemical; conditions: for solubility kinetic at 30 min: pH 6.5 phosphate buffer, pH 6.5
[3] = plasma protein binding by ultracentrifugation, human plasma; assay type: in vitro ADME
[4] = plasma protein binding by ultracentrifugation, mouse plasma; assay type: in vitro ADME; conditions: for PPB mouse (% bound): mouse plasma, ultracentrifugation; for mouse PPB (% bound): approximation based on rat and human plasma protein binding data
[5] = biological target: dog DHODH (Canis lupus familiaris, UniProt A0A8I3MWX2); assay: biochemical
[6] = in vitro metabolism, human liver microsomes; assay type: in vitro ADME
[7] = biological target: T1, PvDHODH (Plasmodium vivax, UniProt A5K1N1); conditions: PvDHODH IC50 higher than PfDHODH IC50
T1 sequence (A5K1N1 160-572): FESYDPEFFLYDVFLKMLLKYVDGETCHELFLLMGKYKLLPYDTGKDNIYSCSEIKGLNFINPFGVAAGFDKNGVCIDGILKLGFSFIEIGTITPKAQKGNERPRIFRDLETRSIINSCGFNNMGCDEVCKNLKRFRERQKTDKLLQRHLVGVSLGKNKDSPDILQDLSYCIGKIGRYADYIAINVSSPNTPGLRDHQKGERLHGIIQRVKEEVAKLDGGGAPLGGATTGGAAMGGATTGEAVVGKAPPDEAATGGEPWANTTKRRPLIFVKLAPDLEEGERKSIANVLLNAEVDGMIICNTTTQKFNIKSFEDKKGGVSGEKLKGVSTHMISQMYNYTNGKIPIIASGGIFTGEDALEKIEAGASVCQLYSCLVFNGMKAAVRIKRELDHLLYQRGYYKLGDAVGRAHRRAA

[8] = plasma protein binding by ultracentrifugation, rat plasma; assay type: in vitro ADME
[9] = biological target: T1, PvDHODH; conditions: read-out: PvDHODH IC50; previous reports; 2 from 15, 3 from 16; cited from earlier work
[10] = scaled; cited from earlier work
[11] = pH 6.5, 30 min at room temperature; cited from earlier work
[12] = in vivo; conditions: Sprague-Dawley, rat, plasma, iv
[13] = in vitro metabolism, mouse liver microsomes; assay type: in vitro ADME
[14] = in vitro metabolism, rat liver microsomes; assay type: in vitro ADME; conditions: from rat microsomal CLint using physiological scaling factors
[15] = biological target: T2, hDHODH (Homo sapiens, UniProt Q02127)
[16] = biological target: T2, hDHODH; assay: biochemical
[17] = approximate
[18] = biological target: hERG K+ channel (Homo sapiens, UniProt Q12809)
[19] = biological target: T2, hDHODH; conditions: read-out: hDHODH IC50; previous reports; 2 from 15, 3 from 16; cited from earlier work
[20] = scaled; cited from earlier work; remark: listed apart in the source
[21] = test system: P. falciparum 3D7 cells; conditions: read-out: EC50 Pf3D7 cells; previous reports; 2 from 15, 3 from 16; cited from earlier work
[22] = mouse plasma; cited from earlier work
[23] = rat plasma; cited from earlier work
[24] = plasma; cited from earlier work
[25] = cited from earlier work
[26] = test system: P. falciparum Pf3D7_0087/N9 parasites; conditions: cited from earlier work
[27] = cited from earlier work; remark: listed apart in the source
[28] = fed state simulated intestinal fluid, pH 5.8 (footnote c); cited from earlier work
[29] = human, pooled human liver microsomes
[30] = 1 QD, converted to different units

Sequence of dog DHODH (A0A8I3MWX2 1-406): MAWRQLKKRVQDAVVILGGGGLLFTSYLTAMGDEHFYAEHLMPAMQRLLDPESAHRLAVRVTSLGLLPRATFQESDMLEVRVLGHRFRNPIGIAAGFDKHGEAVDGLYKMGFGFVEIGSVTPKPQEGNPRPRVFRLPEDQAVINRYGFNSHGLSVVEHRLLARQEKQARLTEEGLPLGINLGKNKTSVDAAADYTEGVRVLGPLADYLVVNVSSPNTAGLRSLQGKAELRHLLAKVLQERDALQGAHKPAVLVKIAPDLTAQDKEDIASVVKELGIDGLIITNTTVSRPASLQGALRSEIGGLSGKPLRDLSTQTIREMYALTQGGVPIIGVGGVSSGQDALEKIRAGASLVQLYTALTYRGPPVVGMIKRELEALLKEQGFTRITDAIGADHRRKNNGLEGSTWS
T2 sequence (Q02127 31-395 limits assumed): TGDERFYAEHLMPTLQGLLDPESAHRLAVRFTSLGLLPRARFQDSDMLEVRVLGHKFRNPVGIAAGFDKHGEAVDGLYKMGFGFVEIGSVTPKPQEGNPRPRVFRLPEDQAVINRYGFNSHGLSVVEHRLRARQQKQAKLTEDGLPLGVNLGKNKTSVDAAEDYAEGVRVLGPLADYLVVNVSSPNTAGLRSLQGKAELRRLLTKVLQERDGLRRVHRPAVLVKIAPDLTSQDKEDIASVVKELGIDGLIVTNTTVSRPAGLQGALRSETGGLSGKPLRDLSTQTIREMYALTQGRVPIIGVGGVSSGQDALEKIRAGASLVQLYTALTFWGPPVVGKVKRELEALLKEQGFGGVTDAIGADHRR
Sequence of hERG K+ channel (Q12809 whole entry): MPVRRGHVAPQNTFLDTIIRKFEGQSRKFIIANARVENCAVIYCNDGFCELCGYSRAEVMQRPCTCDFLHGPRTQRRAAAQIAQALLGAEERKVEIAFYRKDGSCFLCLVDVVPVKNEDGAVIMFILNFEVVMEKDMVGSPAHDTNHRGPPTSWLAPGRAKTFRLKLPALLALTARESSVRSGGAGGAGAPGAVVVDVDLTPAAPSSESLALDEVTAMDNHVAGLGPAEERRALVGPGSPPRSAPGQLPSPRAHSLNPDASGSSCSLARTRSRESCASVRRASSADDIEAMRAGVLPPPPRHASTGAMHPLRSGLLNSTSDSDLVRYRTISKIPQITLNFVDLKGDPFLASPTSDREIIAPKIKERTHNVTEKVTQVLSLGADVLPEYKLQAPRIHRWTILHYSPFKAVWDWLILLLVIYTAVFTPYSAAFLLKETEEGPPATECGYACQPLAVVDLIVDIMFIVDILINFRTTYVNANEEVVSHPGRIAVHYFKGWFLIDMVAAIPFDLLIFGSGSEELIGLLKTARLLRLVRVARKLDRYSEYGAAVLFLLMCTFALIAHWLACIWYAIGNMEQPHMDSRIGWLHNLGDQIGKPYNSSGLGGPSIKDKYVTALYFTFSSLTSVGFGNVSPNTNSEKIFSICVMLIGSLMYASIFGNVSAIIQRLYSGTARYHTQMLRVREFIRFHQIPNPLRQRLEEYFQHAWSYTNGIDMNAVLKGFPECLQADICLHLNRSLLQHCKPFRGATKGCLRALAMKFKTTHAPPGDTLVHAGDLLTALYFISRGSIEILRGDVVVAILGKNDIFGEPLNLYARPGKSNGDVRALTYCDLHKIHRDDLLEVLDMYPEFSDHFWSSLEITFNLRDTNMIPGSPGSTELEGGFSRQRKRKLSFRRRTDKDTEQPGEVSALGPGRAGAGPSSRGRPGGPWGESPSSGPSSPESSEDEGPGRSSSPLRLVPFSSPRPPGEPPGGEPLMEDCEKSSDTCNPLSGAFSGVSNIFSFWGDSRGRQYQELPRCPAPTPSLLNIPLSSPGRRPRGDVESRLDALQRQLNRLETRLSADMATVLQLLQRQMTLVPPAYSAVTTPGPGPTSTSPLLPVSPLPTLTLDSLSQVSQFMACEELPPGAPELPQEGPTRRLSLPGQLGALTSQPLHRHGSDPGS

| SMILES | solubility kinetic at 30 min [2] | PPB human (% bound) [3] | PPB mouse (% bound) [4] | IC50 [5] | CLint scaled at 1 μM [6, 29] | difference of IC50 P. vivax DHODH versus PfDHODH [7] | PPB rat (% bound) [8] | predicted in vivo CLint human [10] | clearance [12] | further results |
| --- | --- | --- | --- | --- | --- | --- | --- | --- | --- | --- |
| Cc1cc(NC2Cc3cc(F)c(F)cc3C2)n2nc(C(C)(F)F)nc2n1 [Compound 35, N-(5,6-Difluoro-2,3-dihydro-1H-inden-2-yl)-2-(1,1-difluoroethyl)-5-methyl-[1,2,4]triazolo[1,5-a]pyrimidin-7-amine] | 6.3 to 12.5 µg/mL (≈ 17.2 to 34.2 µM) | 93.4 % bound | 95.3 % bound | > 100 µM | < 5.8 mL/min/kg | 7 fold | 94.2 % bound |  |  | ED90 ([1]; oral QD for 4 days): > 30 mg/kg; AUCED90 [1]: ∼137 μM·h/day |
| Cc1cc(Nc2ccc(C(F)(F)F)cc2)n2ncnc2n1 [Compound 3, (5-methyl[1,2,4]triazolo[1,5-a]pyrimidin-7-yl)(4-trifluoromethylphenyl)amine] |  |  |  |  |  |  |  | 6.2/ND/ND mL/min/kg |  | IC50 [9]: 2.6 µM; kinetic solubility pH 6.5 [11]: 6.3–12.5 μg/mL |
| Cc1cc(NC2CCc3cc(Cl)ccc3C2)n2nc(C(C)(F)F)nc2n1 (stereo not shown) [Compound 7, 2-(1,1-Difluoroethyl)-N-(6-chloro-1,2,3,4-tetrahydronaphthalen-2-yl)-5-methyl-[1,2,4]triazolo[1,5-a]pyrimidin-7-amine] | 3.1 to 6.3 µg/mL (≈ 8.2 to 16.7 µM) | 98.8 % bound |  | > 100 µM | < 5.8 mL/min/kg | 5–8 fold | 99.2 % bound |  | 3.5 mL/min/kg | AUCED90 [1]: >23 μM·h/day; mouse PPB (% bound) [4]: 99.2 ^c % bound |
| Cc1cc(NC2CCc3cc(Br)ccc3C2)n2nc(C(C)(F)F)nc2n1 (stereo not shown) [Compound 11, 2-(1,1-Difluoroethyl)-N-(6-bromo-1,2,3,4-tetrahydronaphthalen-2-yl)-5-methyl-[1,2,4]triazolo[1,5-a]pyrimidin-7-amine] |  | 99.0 % bound | 99.2 % bound | > 100 µM |  | 5–8 fold | 99.7 % bound |  | 2.8 mL/min/kg | predicted in vivo CLint mouse ([13]; from mouse microsomal CLint using physiological scaling factors): 67 mL/min/kg; in vitro CLint mouse ([13]; mouse liver microsomes): 26 μL/min/mg protein; predicted in vivo CLint rat [14]: 19 mL/min/kg; kinetic solubility pH 6.5 ([2]; pH 6.5, range following 30 min at room temperature): 3.1–6.3 μg/mL; predicted in vivo CLint human ([6]; from human microsomal CLint using physiological scaling factors): < 5.8 mL/min/kg; in vitro CLint human ([6]; human liver microsomes): < 7 μL/min/mg protein |
| Cc1cc(NC2CCc3ccc(Br)cc3C2)n2nc(C(C)(F)F)nc2n1 (stereo not shown) [Compound 13, 2-(1,1-Difluoroethyl)-N-(7-bromo-1,2,3,4-tetrahydronaphthalen-2-yl)-5-methyl-[1,2,4]triazolo[1,5-a]pyrimidin-7-amine] | 1.6 to 3.1 µg/mL (≈ 3.79 to 7.34 µM) | 96.3 % bound |  | > 100 µM | < 5.8 mL/min/kg | 1.5–3 fold | 97.2 % bound |  | 22.4 mL/min/kg | IC50 ([15]; read-out: DHODH IC50 human, Table 2, for 1 four independent replicates): > 100 µM; IC50 [16]: > 100 µM; mouse PPB (% bound) [4]: 97.2 ^c % bound; microsomal CLint at 1 μM [6, 29]: < 7 µL/min/mg |
| Cc1cc(N[C@H]2CCc3ccc(Cl)cc3C2)n2nc(C(C)(F)F)nc2n1 [Compound 9, (S)-N-(7-Chloro-1,2,3,4-tetrahydronaphthalen-2-yl)-2-(1,1-difluoroethyl)-5-methyl-[1,2,4]triazolo[1,5-a]pyrimidin-7-amine] | 3.1 to 6.3 µg/mL (≈ 8.2 to 16.7 µM) | 96.7 % bound | 97.4 % bound | > 100 µM | < 5.8 mL/min/kg | 1.5–3 fold | 96.4 % bound |  |  | Cmax at the ED90 in the SCID study, unbound concentration [17]: approximately 0.05 μM; unbound Cmax at the ED90 lower than the IC50 on the hERG channel ([18]; SCID study): ~30 fold |
| Cc1cc(Nc2ccc3ccccc3c2)n2ncnc2n1 [Compound 2, (5-methyl[1,2,4]triazolo[1,5-a]pyrimidin-7-yl)naphthalen-2-ylamine] |  |  |  |  |  |  |  | 79 mL/min/kg |  | IC50 [19]: > 100 µM; predicted in vivo CLint mouse [20]: 591 mL/min/kg; IC50 [9]: 0.23 µM; EC50 [21]: 0.068 µM; kinetic solubility pH 6.5 [11]: 12.5–25 μg/mL |
| Cc1cc(NC2CCc3cc(C(F)(F)F)c(F)cc3C2)n2nc(C(C)(F)F)nc2n1 (stereo not shown) [Compound 21, 2-(1,1-Difluoroethyl)-N-(7-fluoro-6-(trifluoromethyl)-1,2,3,4-tetrahydro-naphthalen-2-yl)-5-methyl-[1,2,4]triazolo[1,5-a]pyrimidin-7-amine] | 1.6 to 3.1 µg/mL (≈ 3.73 to 7.22 µM) |  |  |  | < 5.8 mL/min/kg |  |  |  |  |  |
| Cc1cc(Nc2ccc(S(F)(F)(F)(F)F)cc2)n2nc(C(C)(F)F)nc2n1 [Compound 1, 2-(1,1-difluoroethyl)-5-methyl-N-[4-(pentafluoro-λ^6-sulfanyl)phenyl]-[1,2,4]triazolo[1,5-a]pyrimidin-7-amine] |  |  |  |  |  |  |  | 3.5 mL/min/kg |  | PPB mouse (% bound) [22]: 99.7 % bound; PPB rat (% bound) [23]: 97.7 % bound; unbound plasma concentration at likely therapeutic doses lower than the IC50 for hERG channel inhibition ([18]; human, plasma): 70–320 fold; PPB human (% bound) [24]: 99.9 % bound; predicted in vivo CLint mouse [20]: 7.2 mL/min/kg; in vitro CLint rat ([25]; rat liver microsomes): 1.8 μL/min/mg protein; predicted in vivo CLint rat ([25]; rat, scaled): 3.1 mL/min/kg; ED90 ([26]; 1, QD dosing): 8.1 mg/kg; AUCED90 [26, 30]: 45.7 μM·h/day; ED90 [26, 30]: 8.1 mg/kg/day; apparent T1/2 ([27]; rat IV […], […]): 13 h; oral BA ([27]; rat): 57%; solubility FeSSIF pH 5.8 [28]: 27.6 ^c μg/mL |
| Cc1cc(NC2CCc3ccc(Br)cc3C2)n2nc(C(C)(F)F)nc2n1 (stereo not shown) [Compound 14, 2-(1,1-Difluoroethyl)-N-(7-bromo-1,2,3,4-tetrahydronaphthalen-2-yl)-5-methyl-[1,2,4]triazolo[1,5-a]pyrimidin-7-amine] |  |  |  |  |  |  |  |  |  | IC50 ([15]; read-out: hDHODH IC50): > 100 µM |
